Measurements as given in publication doi:10.1101/2024.08.19.608619, “Discovery of potent SARS-CoV-2 nsp3 macrodomain inhibitors uncovers lack of translation to cellular antiviral response” (bioRxiv, 2024).
Like-named read-outs stand apart in the source and are kept apart here.

What was measured:
SARS-CoV-2 nsp3-mac1 [1] = target: T1, SARS-CoV-2 nsp3-mac1 (Severe acute respiratory syndrome coronavirus 2, UniProt P0DTD1); test: biochemical; parameters: SARS-CoV-2 nsp3 macrodomain TR-FRET single point, per cent inhibition, n=2
SARS-CoV-2 nsp3-mac1 [2] = target: T1, SARS-CoV-2 nsp3-mac1; test: biochemical; assay type: biochemical; details: SARS-CoV-2 nsp3 macrodomain TR-FRET single point
[3] = read-out: perc_inhibition_mean, batch_name=ASAP-0000309-001
[4] = read-out: perc_inhibition_mean, batch_name=ASAP-0000400-001
[5] = read-out: perc_inhibition_mean, batch_name=ASAP-0000294-001
[6] = read-out: perc_inhibition_mean, batch_name=ASAP-0000242-001
[7] = read-out: perc_inhibition_mean, batch_name=ASAP-0000331-001
[8] = read-out: perc_inhibition_mean, batch_name=ASAP-0000316-001
[9] = read-out: perc_inhibition_mean, batch_name=ASAP-0000252-001
[10] = read-out: perc_inhibition_mean, batch_name=ASAP-0000306-001
[11] = read-out: perc_inhibition_mean, batch_name=ASAP-0000392-001
[12] = read-out: perc_inhibition_mean, batch_name=ASAP-0000474-001
[13] = read-out: perc_inhibition_mean, batch_name=ASAP-0000265-001
[14] = read-out: perc_inhibition_mean, batch_name=ASAP-0000472-001

## Cc1cccc(C)c1-n1nnnc1CSc1ncnc2[nH]cnc12 [ASAP-0000052]
SARS-CoV-2 nsp3-mac1 [1]; read-out: perc_inhibition_mean, batch_name=ASAP-0000052-001
  inhibition at 50 µM: 6.63%
SARS-CoV-2 nsp3-mac1 [2]; concentration 50.0 uM
  perc_inhibition_mean: 6.631%

## COc1cccc(NC(=O)c2ccc(NC(=O)Nc3ccccc3)cc2)n1 [ASAP-0000309]
SARS-CoV-2 nsp3-mac1 [1]; [3]
  inhibition at 49.75 µM: 4.65%
  inhibition at 99.5 µM: 5.37%
SARS-CoV-2 nsp3-mac1 [2]; concentration 49.75 uM, n=2
  perc_inhibition_mean: 4.647%
SARS-CoV-2 nsp3-mac1 [2]; concentration 99.5 uM, n=2
  perc_inhibition_mean: 5.367%

## Cc1cc(CNC(=O)c2cnn3ccc(C4CCN(C(=O)c5ccccc5)CC4)cc23)n(C)n1 [ASAP-0000400]
SARS-CoV-2 nsp3-mac1 [1]; [4]
  inhibition at 49.75 µM: -5.51%
  inhibition at 99.5 µM: -8.12%
SARS-CoV-2 nsp3-mac1 [2]; concentration 49.75 uM
  perc_inhibition_mean: -5.508%
SARS-CoV-2 nsp3-mac1 [2]; concentration 99.5 uM
  perc_inhibition_mean: -8.125%

## Cc1noc(CCCNC(=O)c2ncnc3[nH]ccc23)n1 [ASAP-0000116]
SARS-CoV-2 nsp3-mac1 [1]; read-out: perc_inhibition_mean, batch_name=ASAP-0000116-001
  inhibition at 50 µM: -5.13%
SARS-CoV-2 nsp3-mac1 [2]; concentration 50.0 uM
  perc_inhibition_mean: -5.133%

## Nc1ncnc2c1ncn2Cc1cccc2ncnn12 [ASAP-0000294]
SARS-CoV-2 nsp3-mac1 [1]; [5]
  inhibition at 49.75 µM: -0.553%
  inhibition at 99.5 µM: -3.16%
SARS-CoV-2 nsp3-mac1 [2]; concentration 49.75 uM, n=2
  perc_inhibition_mean: -0.553%
SARS-CoV-2 nsp3-mac1 [2]; concentration 99.5 uM, n=2
  perc_inhibition_mean: -3.161%

## Cn1cnc2c(Nc3cncc(CN)c3)nc(N)nc21 [ASAP-0000242]
SARS-CoV-2 nsp3-mac1 [1]; [6]
  inhibition at 50 µM: -14.2%
  inhibition at 100 µM: -28.3%
SARS-CoV-2 nsp3-mac1 [2]; concentration 50.0 uM
  perc_inhibition_mean: -14.217%
SARS-CoV-2 nsp3-mac1 [2]; concentration 100.0 uM
  perc_inhibition_mean: -28.278%

## COc1ccc(Nc2ncnc3[nH]ncc23)c(OC)c1 [ASAP-0000086]
SARS-CoV-2 nsp3-mac1 [1]; read-out: perc_inhibition_mean, batch_name=ASAP-0000086-001
  inhibition at 50 µM: 2.6%
SARS-CoV-2 nsp3-mac1 [2]; concentration 50.0 uM
  perc_inhibition_mean: 2.597%

## CSc1cccc(NC(=O)c2ncnc3[nH]ccc23)c1 [ASAP-0000192]
SARS-CoV-2 nsp3-mac1 [1]; read-out: perc_inhibition_mean, batch_name=ASAP-0000192-001
  inhibition at 50 µM: -4.67%
SARS-CoV-2 nsp3-mac1 [2]; concentration 50.0 uM
  perc_inhibition_mean: -4.669%

## Cc1cccc(Cl)c1S(=O)(=O)Nc1cnc2[nH]ncc2c1 [ASAP-0000140]
SARS-CoV-2 nsp3-mac1 [1]; read-out: perc_inhibition_mean, batch_name=ASAP-0000140-001
  inhibition at 50 µM: -0.254%
SARS-CoV-2 nsp3-mac1 [2]; concentration 50.0 uM
  perc_inhibition_mean: -0.254%

## Oc1ccccc1CNc1ncnc2[nH]cnc12 [ASAP-0000083]
SARS-CoV-2 nsp3-mac1 [1]; read-out: perc_inhibition_mean, batch_name=ASAP-0000083-001
  inhibition at 50 µM: 1.9%
SARS-CoV-2 nsp3-mac1 [2]; concentration 50.0 uM
  perc_inhibition_mean: 1.904%

## Cn1cnc(C(=O)N(CCC(=O)N2CCNCC2)Cc2cccc(Cl)c2)n1 [ASAP-0000331]
SARS-CoV-2 nsp3-mac1 [1]; [7]
  inhibition at 49.75 µM: -1.44%
  inhibition at 99.5 µM: -0.25%
SARS-CoV-2 nsp3-mac1 [2]; concentration 49.75 uM, n=2
  perc_inhibition_mean: -1.441%
SARS-CoV-2 nsp3-mac1 [2]; concentration 99.5 uM, n=2
  perc_inhibition_mean: -0.25%

## CCc1n[nH]c(NC(=O)c2ccc(NC(=O)Nc3ccccc3)cc2)c1Br [ASAP-0000316]
SARS-CoV-2 nsp3-mac1 [1]; [8]
  inhibition at 49.75 µM: -5.57%
  inhibition at 99.5 µM: 0.467%
SARS-CoV-2 nsp3-mac1 [2]; concentration 49.75 uM, n=2
  perc_inhibition_mean: -5.574%
SARS-CoV-2 nsp3-mac1 [2]; concentration 99.5 uM, n=2
  perc_inhibition_mean: 0.467%

## c1nc(NCc2cnc3sccn23)c2[nH]cnc2n1 [ASAP-0000252]
SARS-CoV-2 nsp3-mac1 [1]; [9]
  inhibition at 50 µM: -4.78%
  inhibition at 100 µM: 5.65%
SARS-CoV-2 nsp3-mac1 [2]; concentration 50.0 uM
  perc_inhibition_mean: -4.782%
SARS-CoV-2 nsp3-mac1 [2]; concentration 100.0 uM
  perc_inhibition_mean: 5.65%

## NCC(F)(F)CNC(=O)c1ccc(NC(=O)Nc2ccccc2)cc1 [ASAP-0000306]
SARS-CoV-2 nsp3-mac1 [1]; [10]
  inhibition at 49.75 µM: -0.965%
  inhibition at 99.5 µM: -1.17%
SARS-CoV-2 nsp3-mac1 [2]; concentration 49.75 uM, n=2
  perc_inhibition_mean: -0.965%
SARS-CoV-2 nsp3-mac1 [2]; concentration 99.5 uM, n=2
  perc_inhibition_mean: -1.174%

## CN1CCC[C@H](NC(=O)c2cnn3ccc(C4CCN(C(=O)c5ccccc5)CC4)cc23)C1 [ASAP-0000392]
SARS-CoV-2 nsp3-mac1 [1]; [11]
  inhibition at 49.75 µM: -6.99%
  inhibition at 99.5 µM: -5.44%
SARS-CoV-2 nsp3-mac1 [2]; concentration 49.75 uM
  perc_inhibition_mean: -6.989%
SARS-CoV-2 nsp3-mac1 [2]; concentration 99.5 uM
  perc_inhibition_mean: -5.439%

## Cn1cc([C@H]2CCCCN2c2ncnc3[nH]ccc23)cn1 [ASAP-0000474]
SARS-CoV-2 nsp3-mac1 [1]; [12]
  inhibition at 49.75 µM: 6.39%
  inhibition at 99.5 µM: 8.32%
SARS-CoV-2 nsp3-mac1 [2]; concentration 49.75 uM
  perc_inhibition_mean: 6.392%
SARS-CoV-2 nsp3-mac1 [2]; concentration 99.5 uM
  perc_inhibition_mean: 8.316%

## CCC(CC)(C(=O)Nc1nc(C)nc2[nH]ccc12)C(=O)OC(C)(C)C [ASAP-0000265]
SARS-CoV-2 nsp3-mac1 [1]; [13]
  inhibition at 50 µM: -9.46%
  inhibition at 100 µM: -4.71%
SARS-CoV-2 nsp3-mac1 [2]; concentration 50.0 uM, n=2
  perc_inhibition_mean: -9.456%
SARS-CoV-2 nsp3-mac1 [2]; concentration 100.0 uM, n=2
  perc_inhibition_mean: -4.708%

## c1nc(N[C@@H]2CCCc3c2cnn3C2CCCC2)c2cc[nH]c2n1 [ASAP-0000472]
SARS-CoV-2 nsp3-mac1 [1]; [14]
  inhibition at 49.75 µM: 0.884%
  inhibition at 99.5 µM: 14.3%
SARS-CoV-2 nsp3-mac1 [2]; concentration 49.75 uM
  perc_inhibition_mean: 0.884%
SARS-CoV-2 nsp3-mac1 [2]; concentration 99.5 uM
  perc_inhibition_mean: 14.273%

## c1ccc(CN2CCO[C@@H](CNc3ncnc4nc[nH]c34)C2)cc1 [ASAP-0000007]
SARS-CoV-2 nsp3-mac1 [1]; read-out: perc_inhibition_mean, batch_name=ASAP-0000007-001
  inhibition at 50 µM: -2.44%
SARS-CoV-2 nsp3-mac1 [2]; concentration 50.0 uM
  perc_inhibition_mean: -2.441%
